Measured values published in patent publication US10875874B2, “Ginkgolide B derivative and preparation method and use thereof” (Chengdu Baiyu Ginkgolide Pharmaceuticals Co., Ltd., priority 2015, dated 2020).
≈ marks a conversion by molar mass, not a printed value. Marks after values point to notes of the source that are not given here.

What was measured:
[1] = Weekly food intake of SHR rats; format: in vivo, rat
Method in brief: (§1)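 Male and female SHR rats (200-250 g, 8/group) dosed intragastrically once daily for 8 weeks with test compounds at 60 or 120 mg/kg/d or captopril 27 mg/kg; Wistar and SHR controls received distilled water. Body weight and food intake observed during treatment.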

[2] = Weekly body weight of SHR rats; format: in vivo, rat
Method in brief: as §1

[3] = test system: spontaneously hypertensive rats (SHR); experiment: Caudal artery systolic pressure of spontaneously hypertensive rats, single administration; format: in vivo, rat; settings: x ± s, n = 8
Method in brief: (§2)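 SHR rats of both sexes (200–250 g, 8/group) dosed intragastrically with 60 or 120 mg/kg/d, or captopril 27 mg/kg, once daily for 8 weeks; Wistar rats and vehicle SHR served as controls. Tail-cuff systolic pressure taken as the mean of 3 readings, measured before dosing and 30–120 min after the first dose, or 30 min post-dose on days 1–56 for chronic treatment.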

[4] = test system: spontaneously hypertensive rats (SHR); experiment: Caudal artery systolic pressure of spontaneously hypertensive rats, 8 weeks of continuous medication; format: in vivo, rat; settings: x ± s, n = 8
Method in brief: as §2

Water solubility test = settings: purified water, thermodynamic from solid
Experimental: Measuring method: samples are ground to obtain fine powder, target compounds are quantitatively weighed, the weighed compounds are added into purified water, and the solubility of the compounds is investigated by ultrasonics.

[5] = 60 mg/kg/d intragastric, week 0
[6] = 60 mg/kg/d intragastric, week 1
[7] = 60 mg/kg/d intragastric, week 2
[8] = 60 mg/kg/d intragastric, week 3
[9] = 60 mg/kg/d intragastric, week 4
[10] = 60 mg/kg/d intragastric, week 5
[11] = 60 mg/kg/d intragastric, week 6
[12] = 60 mg/kg/d intragastric, week 7
[13] = 60 mg/kg/d intragastric, week 8
[14] = 120 mg/kg/d intragastric, week 0
[15] = 120 mg/kg/d intragastric, week 1
[16] = 120 mg/kg/d intragastric, week 2
[17] = 120 mg/kg/d intragastric, week 3
[18] = 120 mg/kg/d intragastric, week 4
[19] = 120 mg/kg/d intragastric, week 5
[20] = 120 mg/kg/d intragastric, week 6
[21] = 120 mg/kg/d intragastric, week 7
[22] = 120 mg/kg/d intragastric, week 8
[23] = 60 mg/kg intragastric single administration, 30 min
[24] = 60 mg/kg intragastric single administration, 60 min
[25] = 60 mg/kg intragastric single administration, 90 min
[26] = 60 mg/kg intragastric single administration, 120 min
[27] = 60 mg/kg intragastric single administration, before administration
[28] = 120 mg/kg intragastric single administration, 30 min
[29] = 120 mg/kg intragastric single administration, 60 min
[30] = 120 mg/kg intragastric single administration, 90 min
[31] = 120 mg/kg intragastric single administration, 120 min
[32] = 120 mg/kg intragastric single administration, before administration
[33] = 60 mg/kg/d intragastric continuous, 1 d, 30 min after administration
[34] = 60 mg/kg/d intragastric continuous, 7 d, 30 min after administration
[35] = 60 mg/kg/d intragastric continuous, 13 d, 30 min after administration
[36] = 60 mg/kg/d intragastric continuous, 19 d, 30 min after administration
[37] = 60 mg/kg/d intragastric continuous, 25 d, 30 min after administration
[38] = 60 mg/kg/d intragastric continuous, 35 d, 30 min after administration
[39] = 60 mg/kg/d intragastric continuous, 49 d, 30 min after administration
[40] = 60 mg/kg/d intragastric continuous, 56 d, 30 min after administration
[41] = 60 mg/kg/d intragastric continuous, before administration
[42] = 120 mg/kg/d intragastric continuous, 1 d, 30 min after administration
[43] = 120 mg/kg/d intragastric continuous, 7 d, 30 min after administration
[44] = 120 mg/kg/d intragastric continuous, 13 d, 30 min after administration
[45] = 120 mg/kg/d intragastric continuous, 19 d, 30 min after administration
[46] = 120 mg/kg/d intragastric continuous, 25 d, 30 min after administration
[47] = 120 mg/kg/d intragastric continuous, 35 d, 30 min after administration
[48] = 120 mg/kg/d intragastric continuous, 49 d, 30 min after administration
[49] = 120 mg/kg/d intragastric continuous, 56 d, 30 min after administration
[50] = 120 mg/kg/d intragastric continuous, before administration

In the case of `CCCCC(OC(C)=O)c1ccccc1C(=O)O[C@H]1C(=O)O[C@H]2O[C@]34C(=O)OC5C[C@@H](C(C)(C)C)C21[C@@]53[C@@H](O)[C@@H]1OC(=O)[C@@H](C)[C@@]14O` (stereo partly shown) [BD], the “Average dairy food intake” value [1, 5] is reported as 18.7 g/day, the “Average dairy food intake” value [1, 6] is reported as 19.0^▴ g/d and the “Average dairy food intake” value [1, 7] is reported as 19.4^▴ g/d. For the same compound, the “Average dairy food intake” value [1, 8] was 19.8^▴ g/d, the “Average dairy food intake” value [1, 9] was 20.0^▴▴ g/d and the “Average dairy food intake” value [1, 10] was 21.3^▴▴ g/d. The “Average dairy food intake” value [1, 11] was 22.6^▴▴ g/d, the “Average dairy food intake” value [1, 12] was 24.3^▴▴ g/d and the “Average dairy food intake” value [1, 13] was 25.0^▴▴ g/d. The “Average dairy food intake” value [1, 14] was 18.3 g/day, the “Average dairy food intake” value [1, 15] was 20.1^▴ g/d and the “Average dairy food intake” value [1, 16] was 20.6^▴▴ g/d. The “Average dairy food intake” value [1, 17] was 21.0^▴▴ g/d, the “Average dairy food intake” value [1, 18] was 21.5^▴▴ g/d and the “Average dairy food intake” value [1, 19] was 22.8^▴▴ g/d. For the same compound, the “Average dairy food intake” value [1, 20] was 23.9^▴▴ g/d, the “Average dairy food intake” value [1, 21] was 25.4^▴▴ g/d and the “Average dairy food intake” value [1, 22] was 26.9^▴▴ g/d. For the same compound, the Body weight [2, 5] was 229.2 g, the Body weight [2, 6] was 234.5 g and the Body weight [2, 7] was 247.1^▴▴ g. The Body weight [2, 8] was 252.2 g, the Body weight [2, 9] was 257.2 g and the Body weight [2, 10] was 262.4 g. For the same compound, the Body weight [2, 11] was 270.4^▴ g, the Body weight [2, 12] was 280.2^▴▴ g and the Body weight [2, 13] was 290.5^▴▴ g. For the same compound, the Body weight [2, 14] was 230.9 g, the Body weight [2, 15] was 252.0^▴▴ g and the Body weight [2, 16] was 257.5^▴▴ g. The Body weight [2, 17] was 263.9^▴▴ g, the Body weight [2, 18] was 270.8^▴▴ g and the Body weight [2, 19] was 281.2^▴▴ g. The Body weight [2, 20] was 291.0^▴▴ g, the Body weight [2, 21] was 304.7^▴▴ g and the Body weight [2, 22] was 321.7^▴▴ g. For the same compound, the Systolic pressure [3, 23] was 157.74 ± 9.28 mmHg, the Systolic pressure [3, 24] was 152.67 ± 13.52 mmHg and the Systolic pressure [3, 25] was 151.60 ± 12.04 mmHg. The Systolic pressure [3, 26] was 155.68 ± 10.15 mmHg, the Systolic pressure [3, 27] was 163.64 ± 14.02 mmHg and the Systolic pressure [3, 28] was 148.47 ± 10.87 mmHg. The Systolic pressure [3, 29] was 151.75 ± 10.68 mmHg, the Systolic pressure [3, 30] was 157.25 ± 14.38 mmHg and the Systolic pressure [3, 31] was 160.49 ± 14.76 mmHg. It also gave a Systolic pressure [3, 32] of 164.57 ± 13.25 mmHg, a Systolic pressure [4, 33] of 156.20 ± 13.41 mmHg and a Systolic pressure [4, 34] of 152.95 ± 11.03 mmHg. For the same compound, the Systolic pressure [4, 35] was 155.74 ± 15.25 mmHg, the Systolic pressure [4, 36] was 153.01 ± 14.04 mmHg and the Systolic pressure [4, 37] was 152.30 ± 10.45 mmHg. For the same compound, the Systolic pressure [4, 38] was 157.03 ± 14.08 mmHg, the Systolic pressure [4, 39] was 153.96 ± 14.74 mmHg and the Systolic pressure [4, 40] was 154.57 ± 12.48 mmHg. For the same compound, the Systolic pressure [4, 41] was 163.64 ± 14.02 mmHg, the Systolic pressure [4, 42] was 150.49 ± 15.34 mmHg and the Systolic pressure [4, 43] was 152.64 ± 11.45 mmHg. For the same compound, the Systolic pressure [4, 44] was 147.33 ± 13.42 mmHg, the Systolic pressure [4, 45] was 145.49 ± 12.98 mmHg and the Systolic pressure [4, 46] was 147.66 ± 14.02 mmHg. The Systolic pressure [4, 47] was 145.61 ± 9.47 mmHg, the Systolic pressure [4, 48] was 148.62 ± 12.04 mmHg and the Systolic pressure [4, 49] was 142.15 ± 13.14 mmHg. The Systolic pressure [4, 50] was 164.57 ± 13.25 mmHg and the solubility (Water solubility test) was 250 µg/mL (≈ 381 µM).

In the case of `C[C@@H]1C(=O)O[C@H]2[C@H](O)[C@@]34C5C[C@@H](C(C)(C)C)C36[C@@H](OC(=O)[C@@H]6OC(=O)[C@H](c3ccccc3Cl)N3CCc6sccc6C3)O[C@@]4(C(=O)O5)[C@@]12O` (stereo partly shown) [BL], the “Average dairy food intake” value [1, 5] is reported as 18.4 g/day, the “Average dairy food intake” value [1, 6] is reported as 19.4^▴ g/d and the “Average dairy food intake” value [1, 7] is reported as 20.5^▴▴ g/d. The “Average dairy food intake” value [1, 8] was 21.0^▴▴ g/d, the “Average dairy food intake” value [1, 9] was 20.9^▴▴ g/d and the “Average dairy food intake” value [1, 10] was 21.9^▴▴ g/d. The “Average dairy food intake” value [1, 11] was 23.5^▴▴ g/d, the “Average dairy food intake” value [1, 12] was 24.5^▴▴ g/d and the “Average dairy food intake” value [1, 13] was 25.1^▴▴ g/d. For the same compound, the “Average dairy food intake” value [1, 14] was 18.6 g/day, the “Average dairy food intake” value [1, 15] was 20.0^▴ g/d and the “Average dairy food intake” value [1, 16] was 20.8^▴▴ g/d. For the same compound, the “Average dairy food intake” value [1, 17] was 21.9^▴▴ g/d, the “Average dairy food intake” value [1, 18] was 22.7^▴▴ g/d and the “Average dairy food intake” value [1, 19] was 23.5^▴▴ g/d. For the same compound, the “Average dairy food intake” value [1, 20] was 24.6^▴▴ g/d, the “Average dairy food intake” value [1, 21] was 25.1^▴▴ g/d and the “Average dairy food intake” value [1, 22] was 26.7^▴▴ g/d. It also gave a Body weight [2, 5] of 230.9 g, a Body weight [2, 6] of 236.4 g and a Body weight [2, 7] of 243.1 g. For the same compound, the Body weight [2, 8] was 252.8 g, the Body weight [2, 9] was 260.9^▴▴ g and the Body weight [2, 10] was 265.8^▴▴ g. For the same compound, the Body weight [2, 11] was 270.6^▴ g, the Body weight [2, 12] was 277.3^▴▴ g and the Body weight [2, 13] was 285.4^▴▴ g. For the same compound, the Body weight [2, 14] was 230.6 g, the Body weight [2, 15] was 251.8^▴▴ g and the Body weight [2, 16] was 257.3^▴▴ g. The Body weight [2, 17] was 264.1^▴▴ g, the Body weight [2, 18] was 270.5^▴▴ g and the Body weight [2, 19] was 281.7^▴▴ g. The Body weight [2, 20] was 290.3^▴▴ g, the Body weight [2, 21] was 302.8^▴▴ g and the Body weight [2, 22] was 315.2^▴▴ g. For the same compound, the Systolic pressure [3, 23] was 158.36 ± 10.54 mmHg, the Systolic pressure [3, 24] was 154.68 ± 12.48 mmHg and the Systolic pressure [3, 25] was 152.74 ± 12.58 mmHg. For the same compound, the Systolic pressure [3, 26] was 152.04 ± 10.02 mmHg, the Systolic pressure [3, 27] was 165.68 ± 16.35 mmHg and the Systolic pressure [3, 28] was 148.01 ± 5.98 mmHg. It also gave a Systolic pressure [3, 29] of 151.36 ± 9.45 mmHg, a Systolic pressure [3, 30] of 152.95 ± 12.54 mmHg and a Systolic pressure [3, 31] of 151.98 ± 9.26 mmHg. For the same compound, the Systolic pressure [3, 32] was 164.25 ± 11.69 mmHg, the Systolic pressure [4, 33] was 154.08 ± 11.54 mmHg and the Systolic pressure [4, 34] was 156.92 ± 9.82 mmHg. For the same compound, the Systolic pressure [4, 35] was 156.07 ± 8.52 mmHg, the Systolic pressure [4, 36] was 153.96 ± 11.07 mmHg and the Systolic pressure [4, 37] was 154.57 ± 9.74 mmHg. The Systolic pressure [4, 38] was 153.67 ± 11.58 mmHg, the Systolic pressure [4, 39] was 149.68 ± 10.42 mmHg and the Systolic pressure [4, 40] was 153.62 ± 9.47 mmHg. For the same compound, the Systolic pressure [4, 41] was 165.68 ± 16.35 mmHg, the Systolic pressure [4, 42] was 153.56 ± 8.15 mmHg and the Systolic pressure [4, 43] was 152.74 ± 10.25 mmHg. For the same compound, the Systolic pressure [4, 44] was 149.52 ± 10.24 mmHg, the Systolic pressure [4, 45] was 149.05 ± 11.09 mmHg and the Systolic pressure [4, 46] was 147.09 ± 12.68 mmHg. It also gave a Systolic pressure [4, 47] of 147.52 ± 10.64 mmHg, a Systolic pressure [4, 48] of 150.94 ± 11.06 mmHg and a Systolic pressure [4, 49] of 149.76 ± 12.63 mmHg. It also gave a Systolic pressure [4, 50] of 164.25 ± 11.69 mmHg and a solubility (Water solubility test) of 200 µg/mL (≈ 280 µM).
